Measurements as given in the supplement of paper PMC10307832.

How the values were obtained:
Assay in all cases: relative viability (nuclei count vs DMSO), 5 days (fraction); higher = more cells survive
[1] = compound: CC1=C(C(=O)N2C=CSC2=N1)CCN3CCC(=C(C4=CC=CC=C4)C5=CC=C(C=C5)F)CC3 + CC1(C)CCC(c2ccc(Cl)cc2)=C(CN2CCN(c3ccc(C(=O)NS(=O)(=O)c4ccc(N[C@H](CCN5CCOCC5)CSc5ccccc5)c(S(=O)(=O)C(F)(F)F)c4)cc3)CC2)C1 [Navitoclax] (partner 0.5 µM)
How it was run: (§1)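 After 5 days of treatment, lung cancer cells in 1536-well plates were fixed and stained in a single step (final 0.05% Triton X-100, 1% formaldehyde, 1 ug/ml Hoechst) and their nuclei counted on 4× images. Treatment had been applied by pin tool the day after seeding as one drug alone or as a fixed anchor-drug dose with five library-drug doses (not always all listed) in √10 steps. Relative viability is the nuclei count of treated wells divided by that of vehicle wells, and values are medians of duplicate plates.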

[2] = compound: CC1=C(C(=O)N2C=CSC2=N1)CCN3CCC(=C(C4=CC=CC=C4)C5=CC=C(C=C5)F)CC3 + CCNC(=O)c1noc(-c2cc(C(C)C)c(O)cc2O)c1-c1ccc(CN2CCOCC2)cc1 [Luminespib] (partner 0.01 µM)
How it was run: as §1

[3] = compound: CC1=C(C(=O)N2C=CSC2=N1)CCN3CCC(=C(C4=CC=CC=C4)C5=CC=C(C=C5)F)CC3 + COc1cc2c(Oc3ccc(NC(=O)C4(C(=O)Nc5ccc(F)cc5)CC4)cc3F)ccnc2cc1OCCCN1CCOCC1 [Foretinib] (partner 0.25 µM)
How it was run: as §1

[4] = compound: CC1=C(C(=O)N2C=CSC2=N1)CCN3CCC(=C(C4=CC=CC=C4)C5=CC=C(C=C5)F)CC3 + C[C@]1(O)C[C@@H](c2nc(-c3ccc4ccc(-c5ccccc5)nc4c3)c3c(N)nccn32)C1 [Linsitinib] (partner 1 µM)
How it was run: as §1

| Cell Line | relative viability ([1]; first compound 0.08 µM) | relative viability ([1]; first compound 0.253 µM) | relative viability ([1]; first compound 0.8 µM) | relative viability ([1]; first compound 2.53 µM) | relative viability ([1]; first compound 8 µM) | relative viability ([2]; first compound 0.08 µM) | relative viability ([2]; first compound 0.253 µM) | relative viability ([2]; first compound 0.8 µM) | relative viability ([2]; first compound 2.53 µM) | relative viability ([2]; first compound 8 µM) | relative viability ([3]; first compound 0.08 µM) | relative viability ([3]; first compound 0.253 µM) | relative viability ([3]; first compound 0.8 µM) | relative viability ([3]; first compound 2.53 µM) | relative viability ([3]; first compound 8 µM) | relative viability ([4]; first compound 0.08 µM) | relative viability ([4]; first compound 0.253 µM) | relative viability ([4]; first compound 0.8 µM) | relative viability ([4]; first compound 2.53 µM) | relative viability ([4]; first compound 8 µM) |
| --- | --- | --- | --- | --- | --- | --- | --- | --- | --- | --- | --- | --- | --- | --- | --- | --- | --- | --- | --- | --- |
| NCI-H1734 | 0.732 | 0.818 | 0.966 | 0.795 | 0.493 | 0.202 | 0.174 | 0.205 | 0.166 | 0.183 | 0.991 | 0.913 | 0.72 | 0.992 | 0.555 | 0.766 | 0.825 | 0.948 | 1.1 | 0.429 |
| NCI-H1755 | 0.932 | 1.02 | 1.1 | 1.02 | 0.56 | 0.467 | 0.548 | 0.374 | 0.333 | 0.519 | 0.907 | 0.888 | 0.892 | 0.912 | 0.762 | 1.04 | 0.98 | 0.973 | 0.981 | 0.779 |
| NCI-H1793 | 0.376 | 0.512 | 0.395 | 0.507 | 0.374 | 0.167 | 0.207 | 0.161 | 0.178 | 0.168 | 0.601 | 0.866 | 0.795 | 0.624 | 0.44 | 0.74 | 0.819 | 1.09 | 0.834 | 0.437 |
| NCI-H1915 | 0.741 | 0.691 | 0.832 | 0.807 | 0.725 | 1.01 | 0.655 | 0.797 | 0.656 | 0.499 | 1.1 | 0.964 | 1.1 | 1.18 | 0.535 | 1.16 | 1.12 | 1.07 | 1.18 | 0.832 |
| NCI-H1944 | 1.03 | 0.916 | 1.02 | 1.06 | 1.06 | 0.782 | 0.926 | 0.751 | 0.775 | 0.584 | 0.8 | 1.12 | 0.891 | 0.862 | 0.539 | 1.3 | 1.16 | 1.07 | 1.21 | 1.23 |
| NCI-H1975 | 1.08 | 1.02 | 1.17 | 1.26 | 0.573 | 0.202 | 0.303 | 0.167 | 0.292 | 0.181 | 1.04 | 0.664 | 0.965 | 1.21 | 0.591 | 0.984 | 0.817 | 0.982 | 0.908 | 0.519 |
| NCI-H1993 | 0.954 | – | 1.12 | 1.05 | 0.917 | 0.79 | 0.841 | 0.916 | 0.897 | 0.768 | 0.701 | 0.677 | 0.757 | 0.915 | 0.682 | 0.763 | – | 0.67 | 0.713 | 0.89 |
| NCI-H2009 | 1.15 | 1.14 | 1.18 | 1.22 | 1.09 | 0.973 | 0.955 | 1.08 | 1.11 | 0.9 | 1.33 | 1.24 | 1.18 | 1.26 | 1.13 | 1.29 | 1.29 | 1.19 | 1.16 | 1.12 |
| NCI-H2023 | 0.99 | 0.894 | 0.997 | 1.08 | 1.09 | 1.37 | 0.783 | 0.864 | 0.946 | 0.518 | 0.831 | 0.713 | 0.758 | 0.984 | 0.621 | 0.63 | 0.598 | 0.718 | 0.723 | 0.582 |
| NCI-H2085 | 1.12 | 1.1 | 1.21 | 1.1 | 0.908 | 0.361 | 0.362 | 0.458 | 0.392 | 0.323 | 0.882 | 1.05 | 1.07 | 1.05 | 0.7 | 1.1 | 0.92 | 1.02 | 1.06 | 0.7 |
| NCI-H2087 | 1 | 0.712 | 0.995 | 1.23 | 0.794 | 0.132 | 0.208 | 0.22 | 0.185 | 0.142 | 0.989 | 1.2 | 1.17 | 1.24 | 0.528 | 1.06 | 0.9 | 0.852 | 1.12 | 0.745 |
| NCI-H2126 | 0.835 | 0.839 | 0.846 | 0.971 | 0.799 | 0.613 | 1.08 | 0.903 | 0.92 | 0.843 | 1.08 | 1.1 | 1.19 | 1.22 | 0.927 | 0.712 | 0.729 | 0.801 | 0.797 | 0.716 |
| NCI-H2228 | 0.693 | 0.914 | 0.811 | 0.838 | 0.623 | 0.126 | 0.194 | 0.181 | 0.137 | 0.101 | 0.689 | 0.645 | 1.13 | 0.864 | 0.55 | 0.769 | 0.803 | 0.672 | 0.706 | 0.445 |
| NCI-H2347 | 0.313 | 0.739 | 0.89 | 0.663 | 0.552 | 0.367 | 0.361 | 0.353 | 0.334 | 0.547 | – | 0.835 | 0.523 | 1.16 | 0.837 | 0.921 | 0.958 | 0.977 | 0.932 | 0.804 |
| NCI-H2405 | 0.892 | 0.968 | 1.08 | 0.962 | 0.705 | 0.746 | 0.744 | 0.753 | 0.649 | 0.564 | 1.08 | 1.03 | 1.09 | 1.04 | 0.969 | 0.999 | 1.14 | 1.1 | 0.862 | 0.744 |
| NCI-H3122 | 1.11 | 1.04 | 1.03 | 1.04 | 0.965 | 0.0707 | 0.131 | 0.1 | 0.0895 | 0.0997 | 1.01 | 1.1 | 0.931 | 0.991 | 0.91 | 1.04 | 1.05 | 0.998 | 1.19 | 1.02 |
